Tests used:
CatSper = CatSper (Homo sapiens, UniProt Q7RTX7+Q86XQ3+Q8NEC5+Q96P56); assay: whole-cell patch clamp of human spermatozoa; assay type: cell-based
[1] = target: T1, α/β hydrolase domain–containing protein 2 (ABHD2) (Homo sapiens, UniProt P08910); assay: monoacylglycerol hydrolysis by recombinant ABHD2; assay type: cell-based
T1 sequence (P08910 1-425): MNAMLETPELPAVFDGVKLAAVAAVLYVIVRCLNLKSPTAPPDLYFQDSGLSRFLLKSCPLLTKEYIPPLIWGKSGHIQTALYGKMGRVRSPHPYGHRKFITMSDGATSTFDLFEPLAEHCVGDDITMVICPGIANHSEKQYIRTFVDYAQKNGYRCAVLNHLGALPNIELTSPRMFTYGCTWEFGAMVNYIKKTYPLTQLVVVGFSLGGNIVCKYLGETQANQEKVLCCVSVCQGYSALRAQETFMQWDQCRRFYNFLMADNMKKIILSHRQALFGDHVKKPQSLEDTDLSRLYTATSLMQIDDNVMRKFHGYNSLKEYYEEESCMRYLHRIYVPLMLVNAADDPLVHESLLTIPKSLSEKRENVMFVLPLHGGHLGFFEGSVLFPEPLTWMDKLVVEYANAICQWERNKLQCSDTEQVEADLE

CatSper, sequence (Q8NEC5 whole entry, the tested form may be a part): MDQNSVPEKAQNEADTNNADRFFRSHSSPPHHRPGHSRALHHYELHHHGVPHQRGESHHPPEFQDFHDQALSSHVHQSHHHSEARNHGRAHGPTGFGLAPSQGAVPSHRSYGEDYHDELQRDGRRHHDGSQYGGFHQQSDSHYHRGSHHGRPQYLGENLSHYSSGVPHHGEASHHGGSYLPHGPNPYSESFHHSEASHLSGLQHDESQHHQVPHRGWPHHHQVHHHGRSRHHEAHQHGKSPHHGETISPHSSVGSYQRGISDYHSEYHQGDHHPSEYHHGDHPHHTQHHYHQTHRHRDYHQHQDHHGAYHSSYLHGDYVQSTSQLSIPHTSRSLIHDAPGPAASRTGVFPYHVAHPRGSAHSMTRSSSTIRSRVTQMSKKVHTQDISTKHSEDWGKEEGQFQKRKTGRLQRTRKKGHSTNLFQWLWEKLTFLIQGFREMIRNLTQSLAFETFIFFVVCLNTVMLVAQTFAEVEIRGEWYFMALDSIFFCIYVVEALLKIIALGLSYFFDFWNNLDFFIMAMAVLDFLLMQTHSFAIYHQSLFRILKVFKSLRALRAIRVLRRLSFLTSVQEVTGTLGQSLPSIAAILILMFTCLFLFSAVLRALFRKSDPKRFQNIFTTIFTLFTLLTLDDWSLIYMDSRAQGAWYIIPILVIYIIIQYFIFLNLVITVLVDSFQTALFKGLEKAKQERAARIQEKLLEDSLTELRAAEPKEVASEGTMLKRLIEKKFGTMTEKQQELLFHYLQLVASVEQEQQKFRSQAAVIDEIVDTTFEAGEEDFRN
CatSper, sequence (Q96P56 whole entry, the tested form may be a part): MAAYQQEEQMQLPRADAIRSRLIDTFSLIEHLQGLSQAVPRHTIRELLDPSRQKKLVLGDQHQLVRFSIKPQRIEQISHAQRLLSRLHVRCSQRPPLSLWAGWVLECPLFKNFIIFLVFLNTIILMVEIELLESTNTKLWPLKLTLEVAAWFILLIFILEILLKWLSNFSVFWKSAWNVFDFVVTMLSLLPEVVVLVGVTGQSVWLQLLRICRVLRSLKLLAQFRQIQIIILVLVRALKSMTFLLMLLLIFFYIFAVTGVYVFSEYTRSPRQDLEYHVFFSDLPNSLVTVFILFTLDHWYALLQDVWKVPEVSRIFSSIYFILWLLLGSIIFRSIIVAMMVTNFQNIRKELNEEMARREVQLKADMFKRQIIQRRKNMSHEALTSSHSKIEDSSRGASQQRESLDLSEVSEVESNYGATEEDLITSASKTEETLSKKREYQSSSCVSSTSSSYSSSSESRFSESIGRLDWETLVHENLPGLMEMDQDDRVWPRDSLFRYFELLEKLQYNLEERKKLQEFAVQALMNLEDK
CatSper, sequence (Q86XQ3 whole entry, the tested form may be a part): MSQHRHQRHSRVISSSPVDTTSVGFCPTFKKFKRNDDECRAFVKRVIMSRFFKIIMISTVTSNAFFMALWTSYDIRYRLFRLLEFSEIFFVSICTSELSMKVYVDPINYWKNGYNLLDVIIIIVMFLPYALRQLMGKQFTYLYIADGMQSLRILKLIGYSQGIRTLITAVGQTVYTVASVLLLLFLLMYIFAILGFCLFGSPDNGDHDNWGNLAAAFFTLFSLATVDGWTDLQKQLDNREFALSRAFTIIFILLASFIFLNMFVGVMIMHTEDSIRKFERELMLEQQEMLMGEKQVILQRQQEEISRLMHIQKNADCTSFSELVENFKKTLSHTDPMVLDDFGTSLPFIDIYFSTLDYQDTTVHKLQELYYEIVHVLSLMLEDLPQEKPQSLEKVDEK
CatSper, sequence (Q7RTX7 whole entry, the tested form may be a part): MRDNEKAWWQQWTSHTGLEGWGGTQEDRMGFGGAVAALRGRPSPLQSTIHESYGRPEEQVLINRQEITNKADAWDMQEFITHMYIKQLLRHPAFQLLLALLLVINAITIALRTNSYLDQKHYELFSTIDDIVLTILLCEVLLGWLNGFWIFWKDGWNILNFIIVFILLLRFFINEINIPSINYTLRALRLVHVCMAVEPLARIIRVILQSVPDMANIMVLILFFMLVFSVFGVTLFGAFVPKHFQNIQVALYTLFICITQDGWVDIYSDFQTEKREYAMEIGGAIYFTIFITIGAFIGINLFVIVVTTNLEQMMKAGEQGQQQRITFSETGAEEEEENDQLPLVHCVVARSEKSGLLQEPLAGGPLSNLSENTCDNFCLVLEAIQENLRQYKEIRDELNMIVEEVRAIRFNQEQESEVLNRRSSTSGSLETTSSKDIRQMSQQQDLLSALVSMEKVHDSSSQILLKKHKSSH

Row | SMILES | whole-cell patch clamp of human spermatozoa (CatSper) | monoacylglycerol hydrolysis by recombinant ABHD2 (free glycerol production) with [1]
1 | CCCCC/C=C\C/C=C\C/C=C\C/C=C\CCCC(=O)OCC(O)CO (centres unmarked) [1AG, 1-arachidonoylglycerol] | whereas 1AG and 2AG (AGs) inhibited ICatSper | –
2 | CCCCC/C=C\C/C=C\C/C=C\C/C=C\CCCC(=O)OC(CO)CO [2AG, 2-arachidonoylglycerol] | – | ABHD2, which metabolizes endocannabinoids 1AG and 2AG only in the presence of progesterone

From article PMC5373689 (Science (New York, N.Y.), 2016)
